Laboratory results published in paper PMC6792352, “Limited Chemical Structural Diversity Found to Modulate Thyroid Hormone Receptor in the Tox21 Chemical Library” (Environmental Health Perspectives, 2019).
Structures can show the parent of a compound that is named as a salt. No end group written: not given here.

Assay: in vitro
Settings: rat, gh3-tre-luc cells, AC50 (uM) modified / 1000

Molecule | CC50 at 24 h [µM]
c1csc(SSc2cccs2)c1 [2-Thienyl disulfide] | > 90
C[C@@H]1O[C@@H](OC[C@H]2O[C@@H](Oc3c(-c4ccc(O)c(O)c4)oc4cc(O)cc(O)c4c3=O)[C@H](O)[C@@H](O)[C@@H]2O)[C@H](O)[C@H](O)[C@H]1O [Rutin] | 57.3
COC(=O)c1ccc(O)cc1 [Methylparaben] | > 90
Cn1cnc2c(O)nc(N)nc21 [9-Methylguanine] | > 90
C=C(C)CC(C)(C)C [2,4,4-Trimethyl-1-pentene] | > 90
CCOC(=O)CC [Ethyl propionate] | > 90
CNc1c2c(nn1C)CCCC2 [Tetridamine] | > 50
O=[N+]([O-])c1ccc2[nH]cnc2c1 [6-Nitrobenzimidazole] | > 90
C/C=C(/C(=C/C)c1ccc(O)cc1)c1ccc(O)cc1 [Dienestrol] | 16.1
C=CC[C@@H]1/C=C(\C)C[C@H](C)C[C@H](OC)[C@H]2O[C@@](O)(C(=O)C(=O)N3CCCC[C@H]3C(=O)O[C@H](/C(C)=C/[C@@H]3CC[C@@H](O)[C@H](OC)C3)[C@H](C)[C@@H](O)CC1=O)[C@H](C)C[C@@H]2OC [Tacrolimus] | > 50
CCOCCOCCOCCO [2-[2-(2-Ethoxyethoxy)ethoxy]ethanol] | > 90
CNC(=O)c1ccccc1Sc1ccc2c(/C=C/c3ccccn3)n[nH]c2c1 [Axitinib] | > 50
Nc1c(CC(=O)O)cccc1C(=O)c1ccc(Br)cc1 [Bromfenac sodium sesquihydrate] | > 50
CCCCCCCCCCCCOCC1CO1 (stereo not drawn) [Dodecyl glycidyl ether] | > 90
Cc1ncc(CSSCc2cnc(C)c(O)c2CO)c(CO)c1O [Pyrithioxin dihydrochloride] | > 50
CCCCCCCCN [1-Octanamine] | > 90
O=C1CCCc2c1cc1ccc3cccc4ccc2c1c34 [9,10-Dihydrobenzo[a]pyren-7(8H)-one] | > 90
CCN(CC)c1ccc2c(-c3ccc(S(=O)(=O)O)cc3S(=O)(=O)[O-])c3ccc(=[N+](CC)CC)cc-3oc2c1 [C.I. Acid Red 52] | 13.4
CC(C)CC(O)Cc1ccccc1 (stereo not drawn) [4-Methyl-1-phenyl-2-pentanol] | > 90
CCCCCCCCCCCC(=O)NCCCN(C)C [N-[3-(Dimethylamino)propyl]dodecanamide] | 18
CCCCOC(=O)c1ccccc1 [Butyl benzoate] | > 90

Molecule | CC50 at 24 h [µM]
c1ccc(C2CO2)cc1 (stereo not drawn) [Styrene oxide] | > 90
Oc1cccc2cc3cccc(O)c3c(O)c12 [1,8,9-Trihydroxyanthracene] | > 90
Cc1cc(Cl)c(C)cc1Cl [1,4-Dichloro-2,5-dimethylbenzene] | > 90
CC(C)(Oc1ccc(Cl)cc1)C(=O)O [Clofibric acid] | > 50
Cc1ccc(N)cc1O [5-Amino-2-methylphenol] | > 90
CC1(C)[C@@H](O[C@H]2O[C@H](C(=O)O)[C@@H](O)[C@H](O)[C@H]2O[C@@H]2O[C@H](C(=O)O)[C@@H](O)[C@H](O)[C@H]2O)CC[C@]2(C)[C@H]3C(=O)C=C4[C@@H]5C[C@@](C)(C(=O)O)CC[C@]5(C)CC[C@@]4(C)[C@]3(C)CC[C@@H]12 [Ammonium glycyrrhizinate trihydrate] | > 70
C=C1CC/C=C(\C)CC[C@@H]2[C@@H]1CC2(C)C [beta-Caryophyllene] | > 90
Nc1ccccc1S(=O)(=O)O [Orthanilic acid] | > 90
COc1ccc2cc(S(=O)(=O)N[C@H](CC(=O)N[C@H](Cc3ccc(CN4[C@H](C)CCC[C@@H]4C)cc3)C(=O)N(C)C(C)C)c3ccc4c(c3)OCO4)ccc2c1 [SSR 240612] | 4.04
COC(=O)c1c(C)cc(O)c(C)c1O [Methyl 2,4-dihydroxy-3,6-dimethylbenzoate] | > 90
Cc1cccc(C)c1OCC(=O)N[C@@H](Cc1ccccc1)[C@@H](O)C[C@H](Cc1ccccc1)NC(=O)[C@H](C(C)C)N1CCCNC1=O [Lopinavir] | 24.6
C=C[Si](OCC)(OCC)OCC [Ethenyl(triethoxy)silane] | > 90
O=C(O)COc1nc(Cl)c(Cl)cc1Cl [Triclopyr] | > 90
N#CCc1ccccc1 [Benzyl cyanide] | > 90
O=C(O)C1CCC(C(=O)O)CC1 (stereo not drawn) [1,4-Cyclohexanedicarboxylic acid] | > 90
CCCCN(CCCC)C(=O)N(CCCC)CCCC [1,1,3,3-Tetrabutylurea] | > 90
COc1ccc([C@@H]2CC(=O)c3c(O)cc(O[C@@H]4O[C@H](CO[C@@H]5O[C@@H](C)[C@H](O)[C@@H](O)[C@H]5O)[C@@H](O)[C@H](O)[C@H]4O)cc3O2)cc1OC [Methyl hesperidin] | > 90
COC(=O)[C@@H]1CC2=CC(=O)CC[C@]2(C)[C@@]23O[C@@H]2C[C@@]2(C)[C@@H](CC[C@@]24CCC(=O)O4)[C@H]13 [Eplerenone] | > 50
CC(C)c1cccc(O)c1 [3-Isopropylphenol] | > 100
CC(=O)c1ccc(O)cc1 [4-Hydroxyacetophenone] | > 90
CC(C)COC(=O)CC(C(=O)OCC(C)C)S(=O)(=O)O (stereo not drawn) [Sodium 1,4-diisobutyl sulfosuccinate] | > 90

Molecule | CC50 at 24 h [µM]
O=C(O)CC/C=C\CC[C@@H]1[C@@H](N2CCCCC2)[C@@H](O)C[C@@H]1OCc1ccc(-c2ccccc2)cc1 [Vapiprost hydrochloride] | > 50
RKDVY [Thymopentin] | > 50
CNC(C)=O [N-Methylacetamide] | > 90
CN(C)C(=O)Oc1cc(OC(=O)N(C)C)cc(C(O)CNC(C)(C)C)c1 (stereo not drawn) [Bambuterol hydrochloride] | > 20
Clc1ccc(C(Cn2ccnc2)OCc2csc3c(Cl)cccc23)c(Cl)c1 (stereo not drawn) [Sertaconazole nitrate] | 18.4
CC(CC=O)CCCC(C)(C)O (stereo not drawn) [Hydroxycitronella] | > 90
CC(=O)O[C@H]1CC[C@H]2[C@@H]3CCC4=CC(=O)CCC4=C3C=C[C@]12C [Trenbolone acetate] | > 50
C=C(C)C1CC=C(C)[C@@H](O)C1 (stereo partly drawn) [Carveol] | > 90
NC1CCN(c2cccc(Cl)n2)CC1 [SR 57227A hydrochloride] | 24.7
CN1CCN(c2c(F)cc3c(=O)c(C(=O)O)cn4c3c2SCC4)CC1 [Rufloxacin hydrochloride] | > 50
CCCC[n+]1cccc(C)c1 [1-Butyl-3-methylpyridinium bromide] | > 90
CCCCS(=O)(=O)N[C@@H](Cc1ccc(OCCCCC2CCNCC2)cc1)C(=O)O [Tirofiban hydrochloride monohydrate] | > 50
CC(C)C1(C)N=C(c2ncccc2C(=O)O)NC1=O (stereo not drawn) [Imazapyr] | > 90
O=S(=O)(O)c1ccc2cc(O)ccc2c1 [Potassium 6-hydroxynaphthalene-2-sulfonate] | > 90
O=Cc1ccc(Cl)c(Cl)c1 [3,4-Dichlorobenzaldehyde] | > 90
O=C(OCCN1CCCCC1)C(O)(c1ccccc1)c1ccccc1 [Piperilate hydrochloride] | > 50
CC(C)(C)C(=O)C(Cl)Cl [Dichloropinacolin] | > 90
CC(C)[N+](C)(C)CC(O)COc1cccc2ccccc12 (stereo not drawn) [Pranolium chloride] | > 50
CCCCCC[N+](=O)[O-] [1-Nitrohexane] | > 90
Cc1ncc([N+](=O)[O-])n1CC(C)O (stereo not drawn) [Secnidazole] | > 50

Same assay, conditions: rat, gh3-tre-luc cells, AC50 (uM) modified / 1000, Tox21_110001=Tox21_111785; viability, 1 nM T3 present, 24 h

Molecule | CC50 at 24 h [µM]
COc1ccc(C(=O)c2c(C)n(CCN3CCOCC3)c3ccccc23)cc1 [Pravadoline] | > 50

Same assay, conditions: rat, gh3-tre-luc cells, AC50 (uM) modified / 1000, Tox21_110001=Tox21_112607; viability, 1 nM T3 present, 24 h

Molecule | CC50 at 24 h [µM]
CN1[C@H]2CC[C@@H]1[C@@H](C(=O)O)[C@@H](OC(=O)c1ccccc1)C2 [Benzoylecgonine] | > 50

Same assay, conditions: rat, gh3-tre-luc cells, AC50 (uM) modified / 1000, Tox21_110001=Tox21_112828; viability, 1 nM T3 present, 24 h

Molecule | CC50 at 24 h [µM]
CC[C@@H](O)C(C[C@@H](C)N(C)C)(c1ccccc1)c1ccccc1 [(+)-alpha-Methadol hydrochloride] | > 100

Same assay, conditions: rat, gh3-tre-luc cells, AC50 (uM) modified / 1000, Tox21_110001=Tox21_112853; viability, 1 nM T3 present, 24 h

Molecule | CC50 at 24 h [µM]
CN1[C@H]2CC[C@@H]1[C@@H](C(=O)O)[C@@H](OC(=O)c1ccccc1)C2 [Benzoylecgonine] | > 100

Same assay, conditions: rat, gh3-tre-luc cells, AC50 (uM) modified / 1000, Tox21_110001=Tox21_112864; viability, 1 nM T3 present, 24 h

Molecule | CC50 at 24 h [µM]
CCN[C@@H](C)Cc1cccc(C(F)(F)F)c1 [Dexfenfluramine hydrochloride] | > 90

Same assay, conditions: rat, gh3-tre-luc cells, AC50 (uM) modified / 1000, Tox21_110001=Tox21_200830; viability, 1 nM T3 present, 24 h

Molecule | CC50 at 24 h [µM]
CC(=O)Nc1ccc2c(c1)Cc1ccccc1-2 [2-Acetylaminofluorene] | > 90

Same assay, conditions: rat, gh3-tre-luc cells, AC50 (uM) modified / 1000, Tox21_110001=Tox21_201490; viability, 1 nM T3 present, 24 h

Molecule | CC50 at 24 h [µM]
CC(C)(O)C#N [2-Hydroxy-2-methylpropanenitrile] | > 100

Same assay, conditions: rat, gh3-tre-luc cells, AC50 (uM) modified / 1000, Tox21_110001=Tox21_202250; viability, 1 nM T3 present, 24 h

Molecule | CC50 at 24 h [µM]
COP(N)(=O)SC (stereo not drawn) [Methamidophos] | > 90

Same assay, conditions: rat, gh3-tre-luc cells, AC50 (uM) modified / 1000, Tox21_110001=Tox21_202325; viability, 1 nM T3 present, 24 h

Molecule | CC50 at 24 h [µM]
N#CSCSC#N [Methylene bis(thiocyanate)] | 3.41

Same assay, conditions: rat, gh3-tre-luc cells, AC50 (uM) modified / 1000, Tox21_110001=Tox21_300794; viability, 1 nM T3 present, 24 h

Molecule | CC50 at 24 h [µM]
CCOP(=S)(OCC)SC(CCl)N1C(=O)c2ccccc2C1=O (stereo not drawn) [Dialifor] | > 90

Same assay, conditions: rat, gh3-tre-luc cells, AC50 (uM) modified / 1000, Tox21_110001=Tox21_300822; viability, 1 nM T3 present, 24 h

Molecule | CC50 at 24 h [µM]
COC(=O)c1c(C(F)F)nc(C(F)(F)F)c(C2=NCCS2)c1CC(C)C [Thiazopyr] | > 90

Same assay, conditions: rat, gh3-tre-luc cells, AC50 (uM) modified / 1000, Tox21_110001=Tox21_301058; viability, 1 nM T3 present, 24 h

Molecule | CC50 at 24 h [µM]
N#CSCSC#N [Methylene bis(thiocyanate)] | 5.63

Same assay, conditions: rat, gh3-tre-luc cells, AC50 (uM) modified / 1000, Tox21_110001=Tox21_303256; viability, 1 nM T3 present, 24 h

Molecule | CC50 at 24 h [µM]
CC(C)(O)C#N [2-Hydroxy-2-methylpropanenitrile] | > 90
